In this assay the target is T1, human CB2R (Homo sapiens, UniProt P34972).
T1 construct: host or cells: CHO cells
T1 sequence (P34972 whole entry): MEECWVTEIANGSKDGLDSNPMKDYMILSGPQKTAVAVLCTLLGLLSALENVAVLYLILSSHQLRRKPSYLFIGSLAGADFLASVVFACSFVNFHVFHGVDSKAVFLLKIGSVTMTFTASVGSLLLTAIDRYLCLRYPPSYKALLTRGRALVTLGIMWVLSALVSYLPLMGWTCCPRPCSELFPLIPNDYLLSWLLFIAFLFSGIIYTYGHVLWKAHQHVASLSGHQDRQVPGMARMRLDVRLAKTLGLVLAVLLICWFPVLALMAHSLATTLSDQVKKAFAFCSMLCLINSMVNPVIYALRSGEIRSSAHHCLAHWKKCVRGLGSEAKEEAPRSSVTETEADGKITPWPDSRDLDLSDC
Briefly: CB2R mediated modulation of cAMP synthesis. The assay is classed as cell-based. The note with it: found through the use of the above described assays (binding and cAMP); CHO cells expressing human CB2R, forskolin-stimulated cAMP. The method in brief: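 CHO cells expressing human CB2R were treated for 30 min at 37 °C with compound in buffer containing 1 mM IBMX, 0.25% BSA and 10 uM forskolin. cAMP was measured after lysis. EC50 is the concentration giving 50% inhibition of forskolin-stimulated cAMP, scaled to the level set by 1 uM CP55940, fitted by four-parameter logistic.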
Regarding `Cc1ccc(S(=O)(=O)C(C)(C)C(=O)Nc2cc(C(C)(C)C)on2)cn1` [N-(5-tert-Butyl-isoxazol-3-yl)-2-methyl-2-(6-methyl-pyridine-3-sulfonyl)-propionamide], the agonistic activity entry is “agonistic activity”.

Consider `CC(C)(C(=O)Nc1cc2ccccc2cn1)S(=O)(=O)c1ccc(Cl)cc1F` [2-[(4-chloro-2-fluorophenyl)sulfonyl]-N-isoquinolin-3-yl-2-methylpropanamide], for which the agonistic activity entry is listed as “agonistic activity”.

Regarding `CC(C)(C(=O)Nc1ccccc1Cl)S(=O)(=O)c1ccc(Cl)cc1` [2-(4-Chloro-benzenesulfonyl)-N-(2-chloro-phenyl)-2-methyl-propionamide], the agonistic activity result is on record as “agonistic activity”. Regarding `O=C(Nc1cccc(C(F)(F)F)n1)C1(S(=O)(=O)c2ccc(C(F)(F)F)cc2)CCOCC1` [4-(4-Trifluoromethyl-benzenesulfonyl)-tetrahydro-pyran-4-carboxylic acid (6-trifluoromethyl-pyridin-2-yl)-amide], the agonistic activity entry is “agonistic activity”. As to `Cn1nc(-c2ccccc2)cc1NC(=O)C(C)(C)S(=O)(=O)c1ccc(Cl)cc1` [2-(4-Chloro-benzenesulfonyl)-2-methyl-N-(2-methyl-5-phenyl-2H-pyrazol-3-yl)-propionamide], the agonistic activity result is “agonistic activity”. With `CC(C)(C)c1csc(NC(=O)C(C)(C)S(=O)(=O)c2ccc3ccccc3c2)n1` [N-(4-tert-Butyl-thiazol-2-yl)-2-methyl-2-(naphthalene-2-sulfonyl)-propionamide], the agonistic activity result was “agonistic activity”.

Turning to `CC(C)(C(=O)Nc1nc2ccccc2o1)S(=O)(=O)c1ccc(Cl)cc1F` [N-1,3-benzoxazol-2-yl-2-[(4-chloro-2-fluorophenyl)sulfonyl]-2-methylpropanamide], the agonistic activity entry was “agonistic activity”.

Consider `CC(C)(C(=O)Nc1ccc2ccccc2n1)S(=O)(=O)c1ccc(Cl)cc1` [2-(4-Chloro-benzenesulfonyl)-2-methyl-N-quinolin-2-yl-propionamide], for which the agonistic activity entry is reported as “agonistic activity”.

On to `CC(C)(C(=O)Nc1nsc(-c2ccccc2)n1)S(=O)(=O)c1ccc(C(F)(F)F)nc1` [2-methyl-N-(5-phenyl-1,2,4-thiadiazol-3-yl)-2-{[6-(trifluoromethyl)pyridin-3-yl]sulfonyl}propanamide], for which the agonistic activity result is “agonistic activity”. As for `CC(C)(C(=O)Nc1cccc(C(F)(F)F)n1)S(=O)(=O)c1ccc(C(F)(F)F)nc1` [2-methyl-N-[6-(trifluoromethyl)pyridin-2-yl]-2-{[6-(trifluoromethyl)pyridin-3-yl]sulfonyl}propanamide], the agonistic activity entry is “agonistic activity”. To `Cn1nc(-c2ccccc2)cc1NC(=O)C(C)(C)S(=O)(=O)c1ccccc1` [2-Benzenesulfonyl-2-methyl-N-(2-methyl-5-phenyl-2H-pyrazol-3-yl)-propionamide] belongs “agonistic activity”.

With `Cn1nc(C(C)(C)C)cc1NC(=O)C(C)(C)S(=O)(=O)c1ccc(S(C)(=O)=O)cc1` [N-(3-tert-butyl-1-methyl-1H-pyrazol-5-yl)-2-methyl-2-{[4-(methylsulfonyl)phenyl]sulfonyl}propanamide], the agonistic activity result is given as “agonistic activity”.

In the case of `Cc1ccc(S(=O)(=O)C(C)(C)C(=O)Nc2nc(C)c(C(C)(C)C)s2)cc1` [N-(5-tert-Butyl-4-methyl-thiazol-2-yl)-2-methyl-2-(toluene-4-sulfonyl)-propionamide], the agonistic activity entry is “agonistic activity”. Consider `CC(C(=O)Nc1cc(C(C)(C)C)on1)S(=O)(=O)c1ccc(C(F)(F)F)cc1` (stereo not drawn) [N-(5-tert-Butyl-isoxazol-3-yl)-2-(4-trifluoromethyl-benzenesulfonyl)-propionamide], for which the agonistic activity entry is reported as “agonistic activity”. For `CCC(C)c1ccc(NC(=O)C(C)(C)S(=O)(=O)c2ccc(Cl)cc2)nc1` (stereo not drawn) [N-(5-sec-Butyl-pyridin-2-yl)-2-(4-chloro-benzenesulfonyl)-2-methyl-propionamide], the agonistic activity result is recorded as “agonistic activity”. With `CC(C)(C)c1nnc(NC(=O)C(C)(C)S(=O)(=O)c2ccc(Cl)cc2)s1` [N-(5-tert-Butyl-[1,3,4]thiadiazol-2-yl)-2-(4-chloro-benzenesulfonyl)-2-methyl-propionamide], the agonistic activity entry is “agonistic activity”.

In the case of `Cc1c(-c2ccccc2)nn(C)c1NC(=O)C(C)(C)S(=O)(=O)c1ccc(C(F)(F)F)nc1` [N-(1,4-dimethyl-3-phenyl-1H-pyrazol-5-yl)-2-methyl-2-{[6-(trifluoromethyl)pyridin-3-yl]sulfonyl}propanamide], the agonistic activity result is “agonistic activity”. As to `Cc1nc(NC(=O)C2(S(=O)(=O)c3ccc(C(F)(F)F)cc3)CC2)sc1C(C)(C)C` [1-(4-Trifluoromethyl-benzenesulfonyl)-cyclopropanecarboxylic acid (5-tert-butyl-4-methyl-thiazol-2-yl)-amide], the agonistic activity result was “agonistic activity”. To `CC(C)(C(=O)Nc1ccc(C(F)(F)F)cc1)S(=O)(=O)c1ccc(Cl)cc1F` [2-[(4-chloro-2-fluorophenyl)sulfonyl]-2-methyl-N-[4-(trifluoromethyl)phenyl]propanamide] belongs “agonistic activity”; to `COc1ccc(S(=O)(=O)C(C)(C)C(=O)Nc2cc(C(C)(C)C)on2)cc1` [N-(5-tert-Butyl-isoxazol-3-yl)-2-(4-methoxy-benzenesulfonyl)-2-methyl-propionamide], “agonistic activity”; to `CC(C)(C(=O)Nc1ncc(-c2ccc(F)cc2)s1)S(=O)(=O)c1ccc(F)cc1` [2-(4-Fluoro-benzenesulfonyl)-N-[5-(4-fluoro-phenyl)-thiazol-2-yl]-2-methyl-propionamide], “agonistic activity”. On to `CC(C)(C(=O)Nc1nc(-c2ccccc2)cs1)S(=O)(=O)c1ccc(Cl)cc1` [2-(4-Chloro-benzenesulfonyl)-2-methyl-N-(4-phenyl-thiazol-2-yl)-propionamide], for which the agonistic activity entry was “agonistic activity”. For `CC(C)(C(=O)Nc1nc(-c2ccccc2)no1)S(=O)(=O)c1ccc(Cl)cc1` [2-(4-Chloro-benzenesulfonyl)-2-methyl-N-(3-phenyl-[1,2,4]oxadiazol-5-yl)-propionamide] the value was “agonistic activity”; for `CC(C)(C(=O)Nc1nnc(C(F)(F)F)s1)S(=O)(=O)c1ccc(Cl)cc1` [2-(4-Chloro-benzenesulfonyl)-2-methyl-N-(5-trifluoromethyl-[1,3,4]thiadiazol-2-yl)-propionamide], “agonistic activity”. For `CC(C)(C(=O)Nc1cc2ccccc2cn1)S(=O)(=O)c1ccc(F)cc1F` [2-(2,4-Difluoro-benzenesulfonyl)-N-isoquinolin-3-yl-2-methyl-propionamide] the value was “agonistic activity”; for `CCCc1cc(NC(=O)C(C)(C)S(=O)(=O)c2ccc(F)cc2F)on1` [2-[(2,4-difluorophenyl)sulfonyl]-2-methyl-N-(3-propylisoxazol-5-yl)propanamide], “agonistic activity”. For `Cc1ccc(S(=O)(=O)C(C)(C)C(=O)Nc2nc(C(C)(C)C)cs2)cc1` [N-(4-tert-Butyl-thiazol-2-yl)-2-methyl-2-(toluene-4-sulfonyl)-propionamide] the value was “agonistic activity”.
